Reference: patent publication US12472185B2, “Methods for killing antibiotic tolerant bacteria” (THE PENN STATE RESEARCH FOUNDATION, priority 2020, dated 2025)

Columns and labels:
[1] = system: P. aeruginosa PA14 exponentially-growing cells; test: Killing at one MIC in PBS, NPIMA compared with cisplatin; type: cell-based, Pseudomonas aeruginosa
Description: FIG. 7. NPIMA compared width cisplatin for killing Pseudomonas aeruginosa, Escherichia coli, and Staphylococcus aureus. Survival of exponentially-growing cells of P. aeruginosa PA14 (a), E. coli (b), and S. aureus (c) treated with one MIC of NPIMA (♦) and cisplatin (●) for 3 hr in PBS. DMSO (▴) and NaClO4 (*) were used as a negative controls. MIC, minimum inhibitory concentration; NPIMA, 5-nitro-3-phenyl-1H-indol-2-yl-methylamine hydrochloride.
For bacterial viability, cells were washed twice with 0.85% NaCl, resuspended in 1×PBS, and cell counts were determined via the drop assay (Donegan, Matyac, Seidler, & Porteous, 1991). For human cell viability, pre-cultured human cancer HT-29 cells were dispensed in 98 μl in 96-well plates with approximately 5,000 cells/well. NPIMA was added (2 μl) to produce concentrations of 5, 10, 100, and 200 μM. For controls, Triton X-100 (positive control) and DMSO (negative solvent control), were used, and the medium was used for background. Plates were incubated in a humidified incubator (37° C., 5% CO2) for 24 hr. Cell viability was determined via a cell counting kit (CCK-8 Kit, ab228554; Abcam), and cytotoxicity was determined via the lactate dehydrogenase (LDH) assay (LDH Assay Kit, MK401; Takara).

[2] = system: E. coli K-12 BW25113; details: from Chowdhury, Wood, et al., 2016; cited from earlier work
[3] = system: S. aureus ATCC29213; details: from Chowdhury, Wood, et al., 2016; cited from earlier work
[4] = system: P. aeruginosa PA14; details: from Chowdhury, Wood, et al., 2016; cited from earlier work

In the case of `N.N.[Cl][Pt][Cl]` [cisplatin], the “time to eradicate P. aeruginosa cells” value [1] is given as 1 h, the MIC [2] is given as 300 µM and the MIC [3] is given as 1000 µM. The MIC [4] was 150 µM.
